{"source": "patent US20230045112A1", "about": "“DISULFIRAM AND OTHER REDOX-RELATED COMPOSITIONS FOR BRAIN TUMORS” (Texas Tech University System, priority 2014, published 2023)", "key": {"[1]": {"molecular_target": "T1, purified recombinant MGMT (rMGMT) (Homo sapiens, UniProt P16455)", "T1 construct": "hexa-histidine; made in house; host or cells: E. coli", "assay": "MGMT DNA repair activity ([3H]-methyl transfer), purified recombinant MGMT treated with DSF", "type": "biochemical", "procedure": "(§1) The DNA repair activity of MGMT was measured by the transfer of [3H]-labeled methyl groups from the O^6-position of guanine in the DNA substrate to the MGMT protein as described previously. The DNA substrate enriched in O6-methylguanine was prepared by reacting [3H]-methylnitrosourea (GE Healthcare, 60 Ci/mmol). Briefly, the cell pellets were washed with cold PBS, disrupted by sonication in the assay buffer (30 mM Tris-HCl pH 7.5, 0.5 mM DTT, 0.5 mM EDTA, 5% glycerol, and 20 μM spermidine) and centrifuged. The extracts (50-150 μg protein) were supplemented with the [3H]-DNA (10,000 cpm) and incubated at 37° C. The reactions were terminated by the addition of TCA, the DNA substrate was hydrolyzed at 80° C., and following filtration on glass fiber discs; the radioactivity present in protein precipitates was quantitated.\n(§2) Cells were trypsinized, washed and MGMT activity was determined in cell extracts (top panel). The same extracts were western blotted for MGMT protein. WB, western blot. […] Cells were exposed to CuDSF and analyzed for MGMT activity and protein as above. […] To delineate the appropriate time for alkylating drug treatments following MGMT inhibition, next, the time course of MGMT depletion by these three interventions was studied."}, "[2]": {"system": "U87 malignant glioma cells", "assay": "MTT cell survival assay, MGMT-deficient cells", "type": "cell-based, human", "details": "DSF-pretreated U87 cells lacking MGMT expression", "procedure": "These were performed using the yellow tetrazolium dye (3-(4, 5-dimethylthiazolyl-2)-2, 5-diphenyl tetrazolium bromide) (MTT) as described previously. […] The purple color developed due to formazan was measured at 570 nm using a […]luor Plus plate reader (Tecan Inc.). Cell proliferation was also assessed by colony formation assays on soft agar.\nCells were then cultured for 48 hours before performing the MTT assays. […] The effect of drugs on cell survival was computed at each concentration. The data represents the results of three independent experiments performed in triplicate. Values are mean+S.D. The results presented in panels B, C and G (at 25-75 μM BCNU and 250-750 temozolomide) were significant at P<0.05. *, indicates statistically significant difference as compared to controls."}, "MGMT [3]": {"molecular_target": "T2, MGMT (Homo sapiens, UniProt P16455)", "T2 sequence (P16455 1-207)": "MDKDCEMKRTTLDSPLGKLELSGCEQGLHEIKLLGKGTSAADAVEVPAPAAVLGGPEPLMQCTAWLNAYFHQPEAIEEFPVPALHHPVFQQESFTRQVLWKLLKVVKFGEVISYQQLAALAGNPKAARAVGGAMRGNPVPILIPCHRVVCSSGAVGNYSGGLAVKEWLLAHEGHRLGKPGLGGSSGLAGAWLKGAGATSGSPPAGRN", "assay": "MGMT activity and protein (western blot) in drug-treated T98G and UW228 brain tumor cells", "type": "cell-based", "parameters": "endogenous in cells; host or cells: UW228, T98G", "procedure": "as §1\nAfter trypsinization, the cell pellets were washed with cold PBS, and subjected to sonication in 50 mM Tris-HCl (pH 8.0) containing 1% glycerol, 1 mM EDTA, 0.5 mM PMSF and 2 mM benzamidine and centrifuged. Equal protein amounts from different treatments were electrophoresed on 12% SDS-polyacrylamide gels. Proteins were electro-transferred to Immobilon-P membranes. The membranes were blocked with 5% non-fat dry milk in Trisbuffered saline (TBS; pH 8.0) containing 0.1% Tween 20 for 3 hours, and subsequently incubated with appropriate primary antibodies. Antigen-antibody complexes were visualized by enhanced chemiluminiscence (Pierce Company). Band intensities were quantified using a Bio-Rad Versa Doc Imaging system.\nas §2\nAt times indicated, MGMT activity and protein levels were assessed.\nMGMT performs a stoichiometric reaction to accomplish the DNA repair and is not recycled to its active form. Instead, the inactivated protein is degraded and fresh translation has to occur to restore the MGMT levels in cells. The rate and extent of this recovery is an important factor in the extent of damage introduced to the normal cell genomes such as the bone marrow stem cells. […] MGMT protein and activity levels were analyzed during the depletion and repletion (FIG. 3B)."}, "[4]": {"details": "cited from earlier work"}, "MGMT [5]": {"molecular_target": "T3, MGMT (Mus musculus, UniProt P26187)", "T3 construct": "from tissue; host or cells: mouse brain and liver", "assay": "MGMT activity in mouse brain and liver after DSF administration", "type": "in vivo, mice", "details": "single dose 150 mg/kg i.p., 9-12 hours", "description": "Control mice received DMSO alone.\nError bars indicate SD. […] The overall findings of the present study are summarized."}, "[6]": {"molecular_target": "T4, cellular MGMT (UW228 cell-free extracts) (Homo sapiens, UniProt P16455)", "T4 construct": "endogenous in cells; host or cells: UW228, T98G", "assay": "MGMT DNA repair activity in UW228 cell-free extracts treated with DSF", "type": "biochemical", "details": "25 μM DSF, 20 minutes", "procedure": "as §1, §2"}, "rMGMT": {"molecular_target": "T5, rMGMT (Homo sapiens, UniProt P16455)", "T5 construct": "hexa-histidine; made in house; host or cells: E. coli", "T5 sequence (P16455 1-207)": "T2 sequence (P16455 1-207)", "assay": "In vitro degradation of DSF treated rMGMT in rabbit reticulocyte lysates", "type": "biochemical", "description": "DSF-exposed MGMT samples were dialyzed to remove the residual drug prior to the degradation assays. […] The protein bands were quantified by densitometry.\nThe samples were immunoblotted and probed with MGMT antibodies (right panel). The densitometric quantitation of protein bands on the western blots is shown as a line graph on the left. […] Cell lysates were western blotted for the MGMT protein. […] Kinetics of DNA interstrand crosslinks formed in UW228 cells after treatment with […] BCNU or […] melphalan is shown. […] They were then exposed to BCNU or melphalan. At times specified, the cells were harvested, DNA isolated and the extent of interstrand crosslinking of DNA was determined using the ethidium bromide fluorescence assay. Values are mean+S.D. The results were significant at P<0.05. […] The cells were trypsinized at times indicated and analyzed by flow cytometry.\nSince the MGMT inactivated by BG is degraded through ub-proteolysis, it was of interest to investigate the mode of elimination of DSF-modified MGMT protein. Therefore, first, we compared the in vitro degradation of DSF-treated and untreated rMGMT protein in rabbit reticulocyte lysates (RL), which are known to promote the proteasomal degradation. The control and DSF-modified MGMT proteins were incubated with RL in the presence of Mg++, ATP and ubiquitin at 37° C. The reaction mixtures were blotted and probed with MGMT antibodies. […] To show the involvement of the ub-proteolysis in cells a clinically used proteasome inhibitor. […] Taken together, the results presented in FIGS. 4A-4B confirm that DSF-modified MGMT is perceived as a structurally altered/damaged protein in cells and eliminated through the ub-proteasomal route."}}, "note": "Where two headings read alike, the source gives them in different places."}
{"smiles": "CCN(CC)C(=S)SSC(=S)N(CC)CC", "note": "[DSF, 1,1′,1″,1′″-[disulfanediylbis(carbonothioylnitrilo)]tetraethane]", "values": [{"measurement": "inhibition at 25 µM", "setting": "[1]", "value": 40, "unit": "%"}, {"measurement": "effect on cell killing by TMZ or BCNU", "setting": "[2]", "value": "did not increase the extent of cell killing by TMZ or BCNU"}, {"measurement": "duration of inactivation of MGMT", "setting": "MGMT [3]", "value": "> 30", "unit": "h"}, {"measurement": "duration of suppression of MGMT activity in cell cultures", "setting": "MGMT [3]", "value": "24 to 36", "unit": "h"}, {"measurement": "inhibition at 50 µM", "setting": "MGMT [3]; 50 μM in culture medium, at 12 hours, maintained till 24 hours, read-out: maximal inhibition of MGMT activity and protein", "value": 75, "unit": "%"}, {"measurement": "inhibition at 50 µM", "setting": "MGMT [3]; UW228 cells, 50 μM, 12 hours, read-out: loss/inhibition of MGMT activity at 12 hours post-drug treatment", "value": 75, "unit": "%"}, {"measurement": "reversibility of DSF modification of MGMT by DTT", "setting": "MGMT [3]; UW228 cells, 10 mM DTT", "value": "largely irreversible"}, {"measurement": "recovery of MGMT activity, % of control levels", "setting": "MGMT [3]; UW228 cells, 48 hours post-drug in drug-free media after 50 μM for 12 hours", "value": "~95 % of control levels"}, {"measurement": "inhibition at 50 µM", "setting": "MGMT [3]; read-out: inhibition of MGMT activity", "value": "~70", "unit": "%"}, {"measurement": "partition coefficient Log P", "setting": "[4]", "value": 2.8}, {"measurement": "decrease of MGMT repair activity in brain", "setting": "MGMT [5]", "value": 40, "unit": "%"}, {"measurement": "repair activity in the extracts curtailed", "setting": "[6]", "value": 75, "unit": "%"}, {"measurement": "disappearance of DSF-modified rMGMT protein", "setting": "rMGMT; 10 minutes of incubation", "value": 30, "unit": "%"}, {"measurement": "disappearance of DSF-modified rMGMT protein", "setting": "rMGMT; 25 minutes of incubation", "value": 45, "unit": "%"}, {"measurement": "disappearance of DSF-modified rMGMT protein", "setting": "rMGMT; 40 minutes of incubation", "value": 70, "unit": "%"}]}
